Data from patent US9658208B2, “Methods and G proteins for screening and identifying ligands of G protein-coupled receptors” (Fred Hutchinson Cancer Research Center, priority 2011, dated 2017).

Test system: odorant receptor (OR) that recognizes vanillin and eugenol (Rho20-eugenol receptor)
Experiment: CRE-SEAP reporter gene assay, Gαs-coupled odorant receptor
Assay type: cell-based
Settings: HEK-293 cells, 500 uM eugenol, 48 hours
From the text: A high throughput screening assay was investigated for Gαs-coupled GPCRs based on the CRE-SEAP reporter gene construct, in which five tandem cAMP response elements […] lie upstream of a gene encoding secreted alkaline phosphatase (SEAP) (Durocher et al., Anal Biochem 284: 316-326 (2000)). To ensure the general utility of the CRE-SEAP reporter gene construct for the detection of Gαs-coupled GPCR activation, HEK-293 cells were cotransfected with the CRE-SEAP construct together with expression vectors encoding either a β2-adrenergic receptor or an odorant receptor (OR) that recognizes vanillin and eugenol. Both receptors are GPCRs that couple to Gαs subunits. The HEK-293 cells expressing the β2-adrenergic receptor were grown for 48 hours in the presence or absence of 10 uM isoproterenol. The HEK-293 cells expressing the OR were grown for 48 hours in the presence of 500 uM eugenol. After growing in the presence of the ligands, the cells were assayed for SEAP activity using a fluorescent alkaline phosphatase substrate and a fluorescence plate reader. […]
Following transfection, the cells were maintained for 48 hours in 200 ul serum free media containing either 10 uM isoproterenol (Sigma) or 500 uM eugenol (Sigma). […] Fluorescence was then measured using a CytoFluor 4000 multi well plate reader (Applied Biosystems).

SEAP activity: increase in SEAP activity
SMILES: C=CCc1ccc(O)c(OC)c1 [eugenol]
